Results as given in US5932733A, “3-amino-2-oxo-1-piperidineacetic derivatives containing an arginine mimic as enzyme inhibitors” (Corvas International, Inc., priority 1995, dated 1999).
pIC50: −log10 of the molar value.

What was measured:
Plasmin = Plasmin (Homo sapiens, UniProt P00747); test: In vitro enzyme assay for specificity: plasmin; format: biochemical; conditions: 1.0 nM enzyme, 30 min preincubation, pH 7.5; mean of at least two experiments
Description: Plasmin catalytic activity was determined using the chromogenic substrate, S-2251 [D-valyl-L-leucyl-L-lysine-p-nitroanilide], which was obtained from Kabi Diagnostica.

aPC = molecular target: T1, aPC (Homo sapiens, UniProt P04070); test: In vitro enzyme assay for specificity: activated protein C; format: biochemical; conditions: 1.0 nM enzyme, 30 min preincubation, pH 7.5; mean of at least two experiments
T1 construct: purchased Hematologic Technologies, Inc
Description: Activated Protein C (aPC)
aPC catalytic activity was determined using the chromogenic substrate, Pefachrome PC (delta-carbobenzloxy-D-lysine-L-prolyl-L-arginine-p-nitroanilide), obtained from Pentapharm Ltd.). […] Purified human aPC was obtained from Hematologic Technologies, Inc. The enzyme was diluted into HBSA prior to assay in which the final concentration was 1.0 nM.

Chymotrypsin = Chymotrypsin (Bos taurus, UniProt P00766); test: In vitro enzyme assay for specificity: chymotrypsin; format: biochemical, bovine; conditions: 1.0 nM enzyme, 30 min preincubation, pH 7.5; mean of at least two experiments
Description: Chymotrypsin catalytic activity was determined using the chromogenic substrate, S-2586 (methoxy-succinyl-L-arginine-L-prolyl-L-tyrosyl-p-nitroanilide), which was obtained from Kabi Diagnostica. […] Purified (3×-crystallized;CDI) bovine pancreatic alpha-chymotrypsin was obtained from Worthington Biochemical Corp. The enzyme was reconstituted in deionized water and diluted into HBSA prior to assay in which the final concentration was 1.0 nM.

Trypsin = molecular target: T2, Trypsin (Bos taurus, UniProt P00760); test: In vitro enzyme assay for specificity: trypsin; format: biochemical, bovine; conditions: 0.5 nM enzyme, 30 min preincubation, pH 7.5; mean of at least two experiments
T2 sequence (P00760 24-246): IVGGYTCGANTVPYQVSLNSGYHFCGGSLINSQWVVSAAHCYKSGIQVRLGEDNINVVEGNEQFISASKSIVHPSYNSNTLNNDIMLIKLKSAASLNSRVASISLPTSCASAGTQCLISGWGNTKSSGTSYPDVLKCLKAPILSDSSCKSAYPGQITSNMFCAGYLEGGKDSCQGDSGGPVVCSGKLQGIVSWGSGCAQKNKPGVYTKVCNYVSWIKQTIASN
Description: Trypsin catalytic activity was determined using the chromogenic substrate, S-2222 (benzoyl-L-isoleucine-L-glutamic acid- (gamma-methyl ester)-L-arginine-p-nitroanilide), which was obtained from Kabi Diagnostica. […] Purified (3×-crystallized; TRL3) bovine pancreatic trypsin was obtained from Worthington Biochemical Corp. The enzyme was reconstituted in deionized water and diluted into HBSA prior to assay in which the final concentration was 0.5 nM.

[1] = Markwardt et al. 1972; cited from earlier work
[2] = tested on: trypsin, plasmin and kallikrein; conditions: Markwardt et al. 1972, inhibiting trypsin; cited from earlier work
[3] = literature report; cited from earlier work
alpha-thrombin = alpha-thrombin (Homo sapiens, UniProt P00734); test: In vitro enzyme assay for specificity: thrombin amidolytic activity; format: biochemical; conditions: 0.25 nM enzyme, 30 min preincubation, pH 7.5, mean of at least two experiments
Description: The buffer used for all assays was HBSA (10 mM HEPES, pH 7.5, 150 mM sodium chloride, 0.1% bovine serum albumin). […] Following a 30-minute incubation at ambient temperature, 50 microliters of the substrate at the concentrations specified below, was added to the wells yielding a final total volume of 200 microliters. The initial velocity of chromogenic substrate hydrolysis was measured by the change in absorbance at 405 nm using a Thermo Max® Kinetic Microplate Reader over a 5 minute period in which less than 5% of the added substrate was utilized.
Thrombin catalytic activity was determined using the chromogenic substrate Pefachrome t-PA (CH3 SO2 -D-hexahydrotyrosine-glycyl-L-arginine-p-nitroanilide, obtained from Pentapharm Ltd.). The substrate was made up in deionized water followed by dilution in HBSA prior to the assay in which the final concentration was 300 micromolar (about 5-times Km). Purified human alpha-thrombin was obtained from Enzyme Research Laboratories, Inc. The enzyme was diluted into HBSA prior to the assay in which the final concentration was 0.25 nM.

human plasma = test: Ex vivo anticoagulant effect, activated partial thromboplastin time (APTT) in human plasma; format: biochemical; conditions: citrated human plasma; control 29 seconds; mean of two independent determinations
Source text: (§1) The control clotting times (0 inhibitor) for rat and human plasma were 19 seconds and 29 seconds, respectively. The concentration of BzlSO2 -norVal(cyclo)-Gly-Ala(3-guanPip)-al which caused a doubling of the control clotting time in rat and human plasma was 12.7 micromolar and 9.1 micromolar, respectively. The data is the mean of two independent determinations.
(§2) Fresh frozen citrated pooled normal human plasma was obtained from George King Biomedical, Overland Park, KA. Pooled normal rat plasma was prepared from citrated whole blood collected from anesthetized rats using standard procedures. The plasma was flash frozen and stored at-80° C. until use. Measurements APTT was made using the Coag-A-Mate RA4 automated coagulometer (General Diagnostics, Organon Technica, Oklahoma City, Okla.) using the Automated APTT reagent (Organon Technica, Durham, N.C.) as the initiator of clotting according to the manufacturers instructions. The assay was conducted by making a series of dilution's of Isomer B in rapidly thawed plasma followed by adding 200 microliters to the wells of the assay carousel.

[4] = tested on: FeCl3-induced platelet-dependent arterial thrombosis; test: Rat model of FeCl3-induced platelet-dependent arterial thrombosis; format: in vivo; conditions: single i.v. bolus, n=6, saline 6/6
Source text: Kurz, K. D., Main, B. W., and Sandusky, G. E., Thromb. […] In this model a platelet-rich, occlusive thrombus is formed in a segment of the rat carotid artery treated locally with a fresh solution of FeCl3 absorbed to a piece of filter paper. The FeCl3 is thought to diffuse into the treated segment of artery and causes de-endothelialization of the affected vessel surface. […] The effect of a test compound on the incidence of occlusive thrombus formation following the application of the FeCl3 is monitored by ultrasonic flowtometry and is used as the primary end point. The use of flowtometry to measure carotid artery blood flow, is a modification of the original procedure in which thermal detection of clot formation was employed. Kurz, K. D., Main, B. W., and Sandusky, G. E., Thromb. […] The animals were prepared, anesthetized with Nembutal followed by the insertion of catheters for blood pressure monitoring, drug and anesthesia delivery. The left carotid artery was isolated by making a midline cervical incision followed by blunt dissection and spreading techniques to separate a 2 cm segment of the vessel from the carotid sheath. A silk suture is inserted under the proximal and distal ends of the isolated vessel to provide clearance for the placement of a ultrasonic flow probe (Transonic) around the proximal end of the vessel. The probe is then secured with a stationary arm. […] The test compound was administered as a single intravenous bolus at the doses outlined in Table 3 after placement of the flow probe and 5 minutes prior to the thrombogenic stimulus.

rat plasma = test: Ex vivo anticoagulant effect, activated partial thromboplastin time (APTT) in rat plasma; format: biochemical; conditions: citrated rat plasma; control 19 seconds; mean of two independent determinations
Source text: as §1, §2

rt-PA = molecular target: T3, rt-PA (Homo sapiens, UniProt P00750); test: In vitro enzyme assay for specificity: recombinant tissue plasminogen activator; format: biochemical; conditions: 1.0 nM enzyme, 30 min preincubation, pH 7.5; mean of at least two experiments
T3 construct: purchased Genentech Inc
Source text: Recombinant tissue plasminogen activator (rt-PA)

Plasmin, sequence (P00747 97-580 limits assumed): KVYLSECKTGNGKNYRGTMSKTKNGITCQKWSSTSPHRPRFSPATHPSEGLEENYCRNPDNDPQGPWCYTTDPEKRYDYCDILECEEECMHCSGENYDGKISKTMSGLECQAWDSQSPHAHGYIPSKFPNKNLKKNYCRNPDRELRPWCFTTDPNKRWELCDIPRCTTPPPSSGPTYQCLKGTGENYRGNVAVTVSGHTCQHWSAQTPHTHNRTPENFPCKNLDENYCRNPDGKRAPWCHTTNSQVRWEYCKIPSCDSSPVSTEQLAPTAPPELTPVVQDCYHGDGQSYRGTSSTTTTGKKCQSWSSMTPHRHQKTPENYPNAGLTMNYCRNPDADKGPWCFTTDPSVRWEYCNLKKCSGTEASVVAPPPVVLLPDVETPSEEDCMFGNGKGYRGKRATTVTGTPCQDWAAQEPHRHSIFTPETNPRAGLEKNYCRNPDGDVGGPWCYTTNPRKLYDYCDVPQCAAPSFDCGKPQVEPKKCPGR
Plasmin, sequence (P00747 581-810 limits assumed): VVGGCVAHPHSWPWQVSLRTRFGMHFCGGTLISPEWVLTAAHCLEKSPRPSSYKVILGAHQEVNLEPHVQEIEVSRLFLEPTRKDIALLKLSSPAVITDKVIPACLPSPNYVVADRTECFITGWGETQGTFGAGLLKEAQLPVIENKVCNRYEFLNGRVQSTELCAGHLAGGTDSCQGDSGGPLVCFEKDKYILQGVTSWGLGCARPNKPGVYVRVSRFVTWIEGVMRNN
T1 sequence (P04070 43-197 limits assumed): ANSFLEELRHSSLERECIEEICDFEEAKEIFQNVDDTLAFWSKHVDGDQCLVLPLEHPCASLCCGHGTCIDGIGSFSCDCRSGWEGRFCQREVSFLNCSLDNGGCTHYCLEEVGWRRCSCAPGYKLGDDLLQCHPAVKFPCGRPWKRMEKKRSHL
T1 sequence (P04070 212-461 limits assumed): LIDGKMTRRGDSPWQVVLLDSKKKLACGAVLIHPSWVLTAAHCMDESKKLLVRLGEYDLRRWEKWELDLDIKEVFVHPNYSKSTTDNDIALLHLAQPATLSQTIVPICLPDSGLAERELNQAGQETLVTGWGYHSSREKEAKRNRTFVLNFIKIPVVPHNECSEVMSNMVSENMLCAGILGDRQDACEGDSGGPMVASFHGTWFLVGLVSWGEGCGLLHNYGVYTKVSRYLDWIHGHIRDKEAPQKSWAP
T3 sequence (P00750 36-562): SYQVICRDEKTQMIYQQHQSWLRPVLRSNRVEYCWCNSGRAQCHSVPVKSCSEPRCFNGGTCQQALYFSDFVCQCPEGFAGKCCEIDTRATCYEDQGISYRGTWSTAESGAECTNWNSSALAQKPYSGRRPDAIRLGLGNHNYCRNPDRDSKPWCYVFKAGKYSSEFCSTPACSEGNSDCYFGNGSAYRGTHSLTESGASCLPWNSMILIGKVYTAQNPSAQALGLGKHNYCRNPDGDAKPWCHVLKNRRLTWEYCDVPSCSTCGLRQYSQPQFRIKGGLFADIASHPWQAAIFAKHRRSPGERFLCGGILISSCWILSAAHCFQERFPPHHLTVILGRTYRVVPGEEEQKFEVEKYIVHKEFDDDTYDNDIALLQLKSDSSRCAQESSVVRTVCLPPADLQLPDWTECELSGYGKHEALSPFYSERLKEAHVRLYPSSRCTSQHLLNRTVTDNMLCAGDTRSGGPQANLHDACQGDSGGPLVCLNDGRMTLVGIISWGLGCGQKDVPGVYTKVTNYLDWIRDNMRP

SMILES | pIC50 (Plasmin) | pIC50 (aPC) | pIC50 (Chymotrypsin) | pIC50 (Trypsin) | pIC50 (alpha-thrombin) | also measured
N=C(N)N1CCCC(C[C@@H](C=O)NC(=O)CN2CCCC[C@H](NS(=O)(=O)Cc3ccccc3)C2=O)C1 (single isomer, unassigned) [C, N-(BnSO2-norLeu(cyclo)-Gly)-3-[3-piperidyl-(N-guanidino)]alaninal] | < 5.60 | < 5.60 | < 5.60 | 4.95 | – | –
N=C(N)c1ccc(CC(=O)C(=O)O)cc1 [APPA, 4-amidinophenylpyruvic acid] | – | – | – | – | – | pharmacokinetics [1]: favourable pharmacokinetics; selectivity of thrombin inhibition [2]: non-selective, inhibiting trypsin, plasmin and kallikrein; toxicity [3]: low toxicity
N=C(N)N1CCCC(C[C@@H](C=O)NC(=O)CN2CCCC[C@H](NS(=O)(=O)Cc3ccccc3)C2=O)C1 (single isomer, unassigned) [D, N-(BnSO2-norLeu(cyclo)-Gly)-3-[3-piperidyl-(N-guanidino)]alaninal] | < 5.60 | < 5.60 | < 5.60 | 4.46 | – | –
N=C(N)N1CCCC(C[C@@H](C=O)NC(=O)CN2CCC[C@H](NS(=O)(=O)Cc3ccccc3)C2=O)C1 (single isomer, unassigned) [Isomer B, benzylsulfonyl-norval(cyclo)-Gly-3-[3-piperidyl-(N-guanidino)]-L-alaninal] | – | – | – | – | 9.10 | concentration which caused a doubling of the control clotting time (APTT) (human plasma): 9.1 µM; Incidence of Occlusion ([4]; 0.3 mg/kg): 6/6; Incidence of Occlusion ([4]; 1.0 mg/kg): 4/6; Incidence of Occlusion ([4]; 3.0 mg/kg, * p ≤ 0.05 from saline control by Fishers test): 0/6; concentration which caused a doubling of the control clotting time (APTT) (rat plasma): 12.7 µM
N=C(N)N1CCCC(C[C@@H](C=O)NC(=O)CN2CCC[C@H](NS(=O)(=O)Cc3ccccc3)C2=O)C1 (single isomer, unassigned) [A, benzylsulfonyl-norval(cyclo)-Gly-3-[3-piperidyl-(N-guanidino)]-L-alaninal] | < 5.60 | < 4.60 | < 4.60 | < 4.60 | 7.54 | pIC50 (rt-PA): < 4.60
